Data as given in patent US12559492B2, “BRAF degraders” (C4 Therapeutics, Inc., priority 2020, dated 2026).

Molecular target: BRAF^V600E protein (Homo sapiens, UniProt P15056, V600E)
Experiment: HiBiT cellular BRAF V600E degradation assay
Type: cell-based
Conditions: 24 h incubation; for DC50: A375.10 cells (HiBiT tag knocked in at N-terminal of BRAF V600E), concentration at which 50% of total cellular BRAF V600E is degraded; for Emax: A375.10 cells, Emax = amount of residual protein remaining in the cell after compound treatment, read-out: HiBit 24 h Emax

Chain of BRAF^V600E protein (P15056 whole entry V600E): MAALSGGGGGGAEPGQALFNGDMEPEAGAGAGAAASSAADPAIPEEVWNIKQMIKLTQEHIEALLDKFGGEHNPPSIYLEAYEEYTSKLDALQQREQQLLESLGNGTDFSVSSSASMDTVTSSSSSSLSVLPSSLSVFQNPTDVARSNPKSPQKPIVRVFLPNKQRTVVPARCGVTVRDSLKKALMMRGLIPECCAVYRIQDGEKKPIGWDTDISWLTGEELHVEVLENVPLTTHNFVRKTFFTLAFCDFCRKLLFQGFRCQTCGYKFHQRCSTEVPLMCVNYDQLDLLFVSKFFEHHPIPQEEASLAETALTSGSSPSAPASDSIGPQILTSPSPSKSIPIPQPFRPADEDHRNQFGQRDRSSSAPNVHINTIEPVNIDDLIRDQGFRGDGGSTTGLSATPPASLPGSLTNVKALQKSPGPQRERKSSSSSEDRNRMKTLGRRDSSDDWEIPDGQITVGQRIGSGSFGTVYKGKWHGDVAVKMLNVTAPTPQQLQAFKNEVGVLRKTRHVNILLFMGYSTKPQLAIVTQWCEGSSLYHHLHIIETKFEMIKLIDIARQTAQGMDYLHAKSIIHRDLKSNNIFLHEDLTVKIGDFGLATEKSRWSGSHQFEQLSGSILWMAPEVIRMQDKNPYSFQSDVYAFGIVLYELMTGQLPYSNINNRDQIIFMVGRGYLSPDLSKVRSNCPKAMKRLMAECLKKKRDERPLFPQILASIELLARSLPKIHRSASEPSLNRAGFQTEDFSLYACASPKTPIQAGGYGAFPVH

`CCN(C)S(=O)(=O)Nc1ccc(F)c(C(=O)c2c[nH]c3ncc(-c4cnc(N5CCN(C(=O)CN6CCC(N7CCN(C8CCC(=O)NC8=O)C(=O)C7)C(F)(F)C6)CC5)nc4)cc23)c1F` (stereo not shown) [Example 173, 5-[2-[4-[2-[4-[4-(2,6-dioxo-3-piperidyl)-3-oxo-piperazin-1-yl]-3,3-difluoro-1-piperidyl]acetyl]piperazin-1-yl]pyrimidin-5-yl]-3-[3-[[ethyl(methyl)sulfamoyl]amino]-2,6-difluoro-benzoyl]-1H-pyrrolo[2,3-b]pyridine] was tested, and the DC50 was 6.37 nM and the Emax was 7.19%.

`CCN(C)S(=O)(=O)Nc1ccc(F)c(C(=O)c2c[nH]c3ncc(-c4cnc(N5CCN(C(=O)CC6(O)CCN(c7ccc(N[C@@H]8CCC(=O)NC8=O)cc7F)CC6)CC5)nc4)cc23)c1F` [Example 174, 5-[2-[4-[2-[1-[4-[[(3R)-2,6-dioxo-3-piperidyl]amino]-2-fluoro-phenyl]-4-hydroxy-4-piperidyl]acetyl]piperazin-1-yl]pyrimidin-5-yl]-3-[3-[[ethyl(methyl)sulfamoyl]amino]-2,6-difluoro-benzoyl]-1H-pyrrolo[2,3-b]pyridine] gave a DC50 of 2.39 nM and an Emax of 9.44%.

`CCN(C)S(=O)(=O)Nc1ccc(F)c(C(=O)c2c[nH]c3ncc(-c4ccc(N5CCN(C(=O)CC6(O)CCN(c7ccc(C8CCC(=O)NC8=O)cc7F)CC6)CC5)cc4)cc23)c1F` (stereo not shown) [Example 175, 5-[4-[4-[2-[1-[4-(2,6-dioxo-3-piperidyl)-2-fluoro-phenyl]-4-hydroxy-4-piperidyl]acetyl]piperazin-1-yl]phenyl]-3-[3-[[ethyl(methyl)sulfamoyl]amino]-2,6-difluoro-benzoyl]-1H-pyrrolo[2,3-b]pyridine] was tested, and the DC50 was 7.12 nM and the Emax was 9.59%.

`CCN(C)S(=O)(=O)Nc1ccc(F)c(C(=O)c2c[nH]c3ncc(-c4ccc(N5CCN(C(=O)CC6(O)CCN(c7ccc(N[C@H]8CCC(=O)NC8=O)cc7F)CC6)CC5)nc4)cc23)c1F` [Example 176, 5-[6-[4-[2-[1-[4-[[(3S)-2,6-dioxo-3-piperidyl]amino]-2-fluoro-phenyl]-4-hydroxy-4-piperidyl]acetyl]piperazin-1-yl]-3-pyridyl]-3-[3-[[ethyl(methyl)sulfamoyl]amino]-2,6-difluoro-benzoyl]-1H-pyrrolo[2,3-b]pyridine] gave a DC50 of 5.84 nM and an Emax of 9.54%.

`CCN(C)S(=O)(=O)Nc1ccc(F)c(C(=O)c2c[nH]c3ncc(-c4ccc(N5CCN(C(=O)CC6(O)CCN(c7ccc(N[C@@H]8CCC(=O)NC8=O)cc7F)CC6)CC5)nc4)cc23)c1F` [Example 177, 5-[6-[4-[2-[1-[4-[[(3R)-2,6-dioxo-3-piperidyl]amino]-2-fluoro-phenyl]-4-hydroxy-4-piperidyl]acetyl]piperazin-1-yl]-3-pyridyl]-3-[3-[[ethyl(methyl)sulfamoyl]amino]-2,6-difluoro-benzoyl]-1H-pyrrolo[2,3-b]pyridine] gave a DC50 of 3.65 nM and an Emax of 9.99%.

Work on `CCN(C)S(=O)(=O)Nc1ccc(F)c(C(=O)c2c[nH]c3ncc(-c4ccc(N5CCN(C(=O)CC6(O)CCN(c7ccc(N[C@@H]8CCC(=O)NC8=O)cc7F)CC6)CC5)cc4)cc23)c1F` [Example 178, 5-[4-[4-[2-[1-[4-[[(3R)-2,6-dioxo-3-piperidyl]amino]-2-fluoro-phenyl]-4-hydroxy-4-piperidyl]acetyl]piperazin-1-yl]phenyl]-3-[3-[[ethyl(methyl)sulfamoyl]amino]-2,6-difluoro-benzoyl]-1H-pyrrolo[2,3-b]pyridine] yielded a DC50 of 2.71 nM and an Emax of 9.65%.

`CCN(C)S(=O)(=O)Nc1ccc(F)c(C(=O)c2c[nH]c3ncc(-c4ccc(N5CCN(C(=O)CC6(O)CCN(c7ccc(N[C@H]8CCC(=O)NC8=O)cc7F)CC6)CC5)cc4)cc23)c1F` [Example 179, 5-[4-[4-[2-[1-[4-[[(3S)-2,6-dioxo-3-piperidyl]amino]-2-fluoro-phenyl]-4-hydroxy-4-piperidyl]acetyl]piperazin-1-yl]phenyl]-3-[3-[[ethyl(methyl)sulfamoyl]amino]-2,6-difluoro-benzoyl]-1H-pyrrolo[2,3-b]pyridine] gave a DC50 of 5.91 nM and an Emax of 8.35%.

`CCN(C)S(=O)(=O)Nc1ccc(F)c(C(=O)c2c[nH]c3ncc(-c4ccc(N5CCN(C(=O)CC6(O)CCN(c7ccc(NC8CCC(=O)NC8=O)cc7F)CC6)CC5)c(Cl)c4)cc23)c1F` (stereo not shown) [Example 180, 5-[3-chloro-4-[4-[2-[1-[4-[(2,6-dioxo-3-piperidyl)amino]-2-fluoro-phenyl]-4-hydroxy-4-piperidyl]acetyl]piperazin-1-yl]phenyl]-3-[3-[[ethyl(methyl)sulfamoyl]amino]-2,6-difluoro-benzoyl]-1H-pyrrolo[2,3-b]pyridine] was tested, and the DC50 was 4.62 nM and the Emax was 8.93%.

`CCN(C)S(=O)(=O)Nc1ccc(F)c(C(=O)c2c[nH]c3ncc(-c4ccn(C5CCN(C(=O)CC6(O)CCN(c7ccc(NC8CCC(=O)NC8=O)cc7F)CC6)CC5)c(=O)c4)cc23)c1F` (stereo not shown) [Example 181, 5-[1-[1-[2-[1-[4-[(2,6-dioxo-3-piperidyl)amino]-2-fluoro-phenyl]-4-hydroxy-4-piperidyl]acetyl]-4-piperidyl]-2-oxo-4-pyridyl]-3-[3-[[ethyl(methyl)sulfamoyl]amino]-2,6-difluoro-benzoyl]-1H-pyrrolo[2,3-b]pyridine] was tested, and the DC50 was 11.5 nM and the Emax was 13.5%.

`CCN(C)S(=O)(=O)Nc1ccc(F)c(C(=O)c2c[nH]c3ncc(-c4cnc(N5CCC(OCC6CCN(c7ccc(NC8CCC(=O)NC8=O)cc7F)CC6)CC5)nc4)cc23)c1F` (stereo not shown) [Example 182, 5-[2-[4-[[1-[4-[(2,6-dioxo-3-piperidyl)amino]-2-fluoro-phenyl]-4-piperidyl]methoxy]-1-piperidyl]pyrimidin-5-yl]-3-[3-[[ethyl(methyl)sulfamoyl]amino]-2,6-difluoro-benzoyl]-1H-pyrrolo[2,3-b]pyridine] showed a DC50 of 17.9 nM and an Emax of 7.7%.

`CCN(C)S(=O)(=O)Nc1ccc(F)c(C(=O)c2c[nH]c3ncc(-c4ccc(N5CCN(C(=O)CC6(O)CCN(c7ccc(NC8CCC(=O)NC8=O)c(F)c7)CC6)CC5)cc4)cc23)c1F` (stereo not shown) [Example 184, 5-[4-[4-[2-[1-[4-[(2,6-dioxo-3-piperidyl)amino]-3-fluoro-phenyl]-4-hydroxy-4-piperidyl]acetyl]piperazin-1-yl]phenyl]-3-[3-[[ethyl(methyl)sulfamoyl]amino]-2,6-difluoro-benzoyl]-1H-pyrrolo[2,3-b]pyridine] gave a DC50 of 3.54 nM and an Emax of 9.04%.

Work on `CCN(C)S(=O)(=O)Nc1ccc(Cl)c(C(=O)c2c[nH]c3ncc(-c4cnc(N5CCN(C(=O)CC6(O)CCN(c7ccc(NC8CCC(=O)NC8=O)cc7F)CC6)CC5)nc4)cc23)c1F` (stereo not shown) [Example 185, 3-[6-chloro-3-[[ethyl(methyl)sulfamoyl]amino]-2-fluoro-benzoyl]-5-[2-[4-[2-[1-[4-[(2,6-dioxo-3-piperidyl)amino]-2-fluoro-phenyl]-4-hydroxy-4-piperidyl]acetyl]piperazin-1-yl]pyrimidin-5-yl]-1H-pyrrolo[2,3-b]pyridine] yielded a DC50 of 6.48 nM and an Emax of 7.43%.

`CCN(C)S(=O)(=O)Nc1ccc(F)c(C(=O)c2c[nH]c3ncc(-c4cnc(N5CCN(C(=O)CC6(O)CCN(c7ccc(NC8CCC(=O)NC8=O)cc7F)CC6)CC5)c(C#N)c4)cc23)c1F` (stereo not shown) [Example 186, 5-[5-cyano-6-[4-[2-[1-[4-[(2,6-dioxo-3-piperidyl)amino]-2-fluoro-phenyl]-4-hydroxy-4-piperidyl]acetyl]piperazin-1-yl]-3-pyridyl]-3-[3-[[ethyl(methyl)sulfamoyl]amino]-2,6-difluoro-benzoyl]-1H-pyrrolo[2,3-b]pyridine] was tested, and the DC50 was 5.45 nM and the Emax was 8.35%.

`CCN(C)S(=O)(=O)Nc1ccc(F)c(C(=O)c2c[nH]c3ncc(-c4cnc(N5CCN(C(=O)CC6(O)CCN(c7ccc(NC8CCC(=O)NC8=O)cc7F)CC6)CC5)cn4)cc23)c1F` (stereo not shown) [Example 187, 5-[5-[4-[2-[1-[4-[(2,6-dioxo-3-piperidyl)amino]-2-fluoro-phenyl]-4-hydroxy-4-piperidyl]acetyl]piperazin-1-yl]pyrazin-2-yl]-3-[3-[[ethyl(methyl)sulfamoyl]amino]-2,6-difluoro-benzoyl]-1H-pyrrolo[2,3-b]pyridine] showed a DC50 of 3.6 nM and an Emax of 7.8%.

Compound `CCN(C)S(=O)(=O)Nc1ccc(F)c(C(=O)c2c[nH]c3ncc(-c4cnc(N5CCN(C(=O)CC6(O)CCN(c7ccc(NC8CCC(=O)NC8=O)cc7F)CC6)CC5)c(F)c4)cc23)c1F` (stereo not shown) [Example 188, 5-[6-[4-[2-[1-[4-[(2,6-dioxo-3-piperidyl)amino]-2-fluoro-phenyl]-4-hydroxy-4-piperidyl]acetyl]piperazin-1-yl]-5-fluoro-3-pyridyl]-3-[3-[[ethyl(methyl)sulfamoyl]amino]-2,6-difluoro-benzoyl]-1H-pyrrolo[2,3-b]pyridine] has a DC50 of 4.5 nM and an Emax of 5.98%.

For `CCN(C)S(=O)(=O)Nc1ccc(F)c(C(=O)c2c[nH]c3ncc(-c4ccc(N5CCN(C(=O)CC6(O)CCN(c7ccc(NC8CCC(=O)NC8=O)cc7F)CC6)CC5)cc4C)cc23)c1F` (stereo not shown) [Example 189, 5-[4-[4-[2-[1-[4-[(2,6-dioxo-3-piperidyl)amino]-2-fluoro-phenyl]-4-hydroxy-4-piperidyl]acetyl]piperazin-1-yl]-2-methyl-phenyl]-3-[3-[[ethyl(methyl)sulfamoyl]amino]-2,6-difluoro-benzoyl]-1H-pyrrolo[2,3-b]pyridine], the DC50 was 58.4 nM and the Emax was 14.9%.

`O=C1CCC(Nc2ccc(N3CCC(O)(CC(=O)N4CCN(c5ccc(-c6cnc7[nH]cc(C(=O)c8c(F)ccc(NS(=O)(=O)N9CC[C@@H](F)C9)c8F)c7c6)cn5)CC4)CC3)c(F)c2)C(=O)N1` (stereo partly drawn) [Example 190, (3R)—N-[3-[5-[6-[4-[2-[1-[4-[(2,6-dioxo-3-piperidyl)amino]-2-fluoro-phenyl]-4-hydroxy-4-piperidyl]acetyl]piperazin-1-yl]-3-pyridyl]-1H-pyrrolo[2,3-b]pyridine-3-carbonyl]-2,4-difluoro-phenyl]-3-fluoro-pyrrolidine-1-sulfonamide] showed a DC50 of 2.72 nM and an Emax of 7.07%.
